Each compound was assayed against T1, BRD9 (Homo sapiens, UniProt Q9H8M2) (assay: BRD9 AlphaLisa Binding Assay). Details: not given.
T1 construct: 134-239 was cloned, expressed, and purified to homogeneity; Flag; made in house
T1 sequence (Q9H8M2 134-239 limits assumed): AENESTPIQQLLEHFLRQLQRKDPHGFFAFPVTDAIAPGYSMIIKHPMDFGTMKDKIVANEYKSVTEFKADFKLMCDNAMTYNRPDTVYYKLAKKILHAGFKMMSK
Experimental: IC50 Measurements for Inhibitors Using BRD9 AlphaLisa Binding Assay His/Flag epitope tagged BRD9134-239 was cloned, expressed, and purified to homogeneity. […] After 20 minutes incubation at room temperature AlphaLisa Streptavidin Acceptor Beads (Perkin-A[…]) and AlphaLisa Nickel donor beads (Perkin AS 10 ID) were added to a final concentration of 15 ug/mL each.

Row | Compound | IC50
1 | CCCCn1cc(C(=O)NCc2ccccc2)c2cc[nH]c2c1=O [Example 259] | 600 nM
2 | Cn1cc(C(=O)N2CCNc3ccccc3C2)c2cc[nH]c2c1=O [Example 88] | 1500 nM
3 | C=CCn1cc(C(=O)N(C)C2CCN(c3ccncn3)CC2)c2cc[nH]c2c1=O [Example 161, 6-allyl-N-methyl-7-oxo-N-(1-pyrimidin-4-yl-4-piperidyl)-1H-pyrrolo[2,3-c]pyridine-4-carboxamide] | 2900 nM
4 | CC=CCn1cc(C(=O)NCCC2CCN(C(=O)OCc3ccccc3)C2)c2cc[nH]c2c1=O (centres unmarked) [Example 19, benzyl 3-[2-[(6-but-2-enyl-7-oxo-1H-pyrrolo[2,3-c]pyridine-4-carbonyl)amino]ethyl]pyrrolidine-1-carboxylate] | 75 nM
5 | Cn1cc(C(=O)N[C@H](c2ccccc2)[C@@H](O)c2ccccc2)c2cc[nH]c2c1=O [Example 107] | 3400 nM

More lines, now with the values ahead:

Row | IC50 | Compound
6 | 130 nM | Cn1cc(C(=O)NC2CCCc3ccccc32)c2cc[nH]c2c1=O (centres unmarked) [Example 125]
7 | 860 nM | Cn1cc(C(=O)NCC2CCOC2)c2cc[nH]c2c1=O (centres unmarked) [Example 102]
8 | 6100 nM | CC1CCCN(CCNC(=O)c2cn(C)c(=O)c3[nH]ccc23)C1 (centres unmarked) [Example 45, 6-methyl-N-[2-(3-methyl-1-piperidyl)ethyl]-7-oxo-1H-pyrrolo[2,3-c]pyridine-4-carboxamide]
9 | 240 nM | CC(NC(=O)c1cn(C)c(=O)c2[nH]ccc12)C1CC2CCC1C2 (centres unmarked) [Example 106]

These compounds were tested against T2, TAF1-BD2 (Homo sapiens, UniProt P21675) (assay: TAF1-BD2 TR-FRET Binding Assay). Details: Assay: TAF-1.
T2 sequence (P21675 1525-1656): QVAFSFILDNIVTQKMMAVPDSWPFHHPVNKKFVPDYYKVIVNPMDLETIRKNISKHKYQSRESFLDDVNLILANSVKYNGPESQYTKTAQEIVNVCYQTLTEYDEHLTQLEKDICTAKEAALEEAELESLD
Experimental: Specifically, in a 384 well ProxiPlate TAF1-BD2 (6 nM final) was combined with biotin-ligand (50 nM final) in 50 mM HEPES (pH 7.5), 50 mM NaCl, 1 mM TCEP, 0.01% (w/v) BSA, and 0.008% (w/v) Brij-35 either in the presence of DMSO (final 0.2% DMSO) or compound dilution series in DMSO. After 10 minutes incubation at room temperature, a mixture Eu-W1024 Anti-6×His antibody (Perkin Elmer AD0110) and SureLight™ Allophycocyanin-Streptavidin (APC-SA, Perkin Elmer CR130-100) were added to a final concentrations of 0.2 nMolar antibody and 25 nMolar APC-SA, respectively. After twenty minutes of equilibration, the plates were read on an Envision instrument and IC50s calculated using a four parameter non-linear curve fit.

Row | Compound | IC50
10 | C=CCn1cc(C(=O)N(C)C2CCN(c3cc(CCC)ncn3)CC2)c2cc[nH]c2c1=O [Example 166, 6-allyl-N-methyl-7-oxo-N-[1-(6-propylpyrimidin-4-yl)-4-piperidyl]-1H-pyrrolo[2,3-c]pyridine-4-carboxamide] | 2100 nM
11 | CN(CC1CCN(c2ncccn2)CC1)C(=O)c1cn(C)c(=O)c2[nH]ccc12 [Example 157, N,6-dimethyl-7-oxo-N-[(1-pyrimidin-2-yl-4-piperidyl)methyl]-1H-pyrrolo[2,3-c]pyridine-4-carboxamide] | 1600 nM
12 | N-cyclopropyl-6-methyl-N-(1-methyl-4-piperidyl)-7-oxo-1H-pyrrolo[2,3-c]pyridine-4-carboxamide [Example 81] | 710 nM
13 | CC=CCn1cc(C(=O)NCCCNC(=O)OCc2ccccc2)c2cc[nH]c2c1=O [Example 17, benzyl N-[3-[(6-but-2-enyl-7-oxo-1H-pyrrolo[2,3-c]pyridine-4-carbonyl)amino]propyl]carbamate] | 3600 nM
14 | Cn1cc(C(=O)NCC2CCCN(C(=O)OC(C)(C)C)C2)c2cc[nH]c2c1=O (centres unmarked) [Example 135] | 1300 nM
15 | Cn1cc(C(=O)NC2CCN(c3ncc(C#N)cn3)CC2)c2cc[nH]c2c1=O [Example 152, N-[1-(5-cyanopyrimidin-2-yl)-4-piperidyl]-6-methyl-7-oxo-1H-pyrrolo[2,3-c]pyridine-4-carboxamide] | 570 nM
16 | Cn1cc(C(=O)NCC2CN(C(=O)OC(C)(C)C)C2)c2cc[nH]c2c1=O [Example 130] | 1200 nM
17 | C=CCn1cc(C(=O)N(C)C2[C@H]3CN(c4nccc(C(F)(F)F)n4)C[C@@H]23)c2cc[nH]c2c1=O (some centres unmarked) [Example 250] | 14000 nM
18 | Cn1cc(C(=O)NC2CCN(c3nccc(C(F)(F)F)n3)CC2)c2cc[nH]c2c1=O [Example 153, 6-methyl-7-oxo-N-[1-[4-(trifluoromethyl)pyrimidin-2-yl]-4-piperidyl]-1H-pyrrolo[2,3-c]pyridine-4-carboxamide] | 490 nM
19 | Cn1cc(C(=O)N2CCC(c3ccccc3)CC2)c2cc[nH]c2c1=O [Example 71, 6-methyl-4-(4-phenylpiperidine-1-carbonyl)-1H-pyrrolo[2,3-c]pyridin-7-one] | 3000 nM
20 | CN(CC1CCN(CC2CCCO2)CC1)C(=O)c1cn(C)c(=O)c2[nH]ccc12 (centres unmarked) [Example 231] | 9900 nM
21 | Cn1cc(C(=O)NC2CCN(c3ncc(F)cn3)CC2)c2cc[nH]c2c1=O [Example 154, N-[1-(5-fluoropyrimidin-2-yl)-4-piperidyl]-6-methyl-7-oxo-1H-pyrrolo[2,3-c]pyridine-4-carboxamide] | 530 nM
22 | CN(C(=O)c1cn(C)c(=O)c2[nH]ccc12)C1CCN(CC2CCCC2)CC1 [Example 219] | 3600 nM
23 | CC(CN1CCC(N(C)C(=O)c2cn(C)c(=O)c3[nH]ccc23)CC1)c1ccccc1 (centres unmarked) [Example 255] | 4800 nM
24 | CC=CCn1cc(C(=O)NCCN2CCN(Cc3ccccc3)CC2)c2cc[nH]c2c1=O [Example 16, N-[2-(4-benzylpiperazin-1-yl)ethyl]-6-but-2-enyl-7-oxo-1H-pyrrolo[2,3-c]pyridine-4-carboxamide] | 6000 nM
25 | Cn1cc(C(=O)N2CCC(N3CCOCC3)CC2)c2cc[nH]c2c1=O [Example 63, 6-methyl-4-(4-morpholinopiperidine-1-carbonyl)-1H-pyrrolo[2,3-c]pyridin-7-one] | 4700 nM
26 | CN(CC1CCN(Cc2ccc(Cl)cc2)CC1)C(=O)c1cn(C)c(=O)c2[nH]ccc12 [Example 200, N-[[1-[(4-chloropbenyl)methyl]-4-piperidyl]methyl]-N,6-dimethyl-7-oxo-1H-pyrrolo[2,3-c]pyridine-4-carboxamide] | 8000 nM
27 | Cn1cc(C(=O)N2CCC(c3cccc(F)c3)CC2)c2cc[nH]c2c1=O [Example 49, 4-[4-(3-fluorophenyl)piperidine-1-carbonyl]-6-methyl-1H-pyrrolo[2,3-c]pyridin-7-one] | 3900 nM
28 | CC(C)c1ccc(N2CCC(N(C)C(=O)c3cn(C)c(=O)c4[nH]ccc34)CC2)cc1 [Example 180, N-[1-(4-isopropylphenyl)-4-piperidyl]-N,6-dimethyl-7-oxo-1H-pyrrolo[2,3-c]pyridine-4-carboxamide] | 160 nM
29 | Cn1cc(C(=O)N2CCC(c3cnccn3)CC2)c2cc[nH]c2c1=O [Example 51, 6-methyl-4-(4-pyrazin-2-ylpiperidine-1-carbonyl)-1H-pyrrolo[2,3-c]pyridin-7-one] | 4400 nM

The remaining lines, values ahead:

Row | IC50 | Compound
30 | 3400 nM | CC(C)N1CC[C@H](NC(=O)c2cn(C)c(=O)c3[nH]ccc23)[C@H](F)C1 (relative stereo) [Example 240]
31 | 550 nM | Cn1cc(C(=O)NC2CCN(c3cnccn3)CC2)c2cc[nH]c2c1=O [Example 151, 6-methyl-7-oxo-N-(1-pyrazin-2-yl-4-piperidyl)-1H-pyrrolo[2,3-c]pyridine-4-carboxamide]
32 | 1700 nM | Cn1cc(C(=O)NCC(C)(C)N2CCOCC2)c2cc[nH]c2c1=O [Example 36, 6-methyl-N-(2-methyl-2-morpholino-propyl)-7-oxo-1H-pyrrolo [2,3-c]pyridine-4-carboxamide]
33 | 8200 nM | Cn1cc(C(=O)N2CCC(F)CC2)c2cc[nH]c2c1=O [Example 53, 4-(4-fluoropiperidine-1-carbonyl)-6-methyl-1H-pyrrolo[2,3-c]pyridin-7-one]
34 | 690 nM | CN1CCC(CCNC(=O)c2cn(C)c(=O)c3[nH]ccc23)CC1 [Example 25, 6-methyl-N-[2-(1-methyl-4-piperidyl)ethyl]-7-oxo-1H-pyrrolo[2,3-c]pyridine-4-carboxamide]
35 | 3300 nM | CC(C)N1CC2C(C1)C2NC(=O)c1cn(C)c(=O)c2[nH]ccc12 (centres unmarked) [Example 228]
36 | 2100 nM | CC(C)N1CC[C@H](NC(=O)c2cn(C)c(=O)c3[nH]ccc23)[C@H](C)C1 (relative stereo) [Example 238]
37 | 1600 nM | COCCN1CCC(CN(C)C(=O)c2cn(C)c(=O)c3[nH]ccc23)CC1 [Example 193]
38 | 5300 nM | CN1CCC(C)(NC(=O)c2cn(C)c(=O)c3[nH]ccc23)CC1 [Example 210, N-(1,4-dimethyl-4-piperidyl)-6-methyl-7-oxo-1H-pyrrolo[2,3-c]pyridine-4-carboxamide]
39 | 7100 nM | CN(C1CCCCC1)C1CCN(C(=O)c2cn(C)c(=O)c3[nH]ccc23)CC1 [Example 52, 4-[4-[cyclohexyl(methyl)amino]piperidine-1-carbonyl]-6-methyl-1H-pyrrolo[2,3-c]pyridin-7-one]
40 | 2900 nM | Cn1cc(C(=O)N2CCC(CCNS(C)(=O)=O)CC2)c2cc[nH]c2c1=O [Example 54, N-[2-[1-(6-methyl-7-oxo-1H-pyrrolo[2,3-c]pyridine-4-carbonyl)-4-piperidyl]ethyl]methanesulfonamide]
41 | 580 nM | CC(C)N1CC[C@@H](NC(=O)c2cn(C)c(=O)c3[nH]ccc23)[C@H](F)C1 (relative stereo) [Example 209]
42 | 2300 nM | Cn1cc(C(=O)N2CCC(C(C)(C)C)CC2)c2cc[nH]c2c1=O [Example 47, 4-(4-tert-butylpiperidine-1-carbonyl)-6-methyl-1H-pyrrolo[2,3-c]pyridin-7-one]
43 | 1500 nM | Cn1cc(C(=O)NCCC2CCN(CC(F)(F)F)CC2)c2cc[nH]c2c1=O [Example 20, 6-methyl-7-oxo-N-[2-[1-(2,2,2-trifluoroethyl)-4-piperidyl]ethyl]-1H-pyrrolo[2,3-c]pyridine-4-carboxamide]
44 | 1700 nM | Cn1cc(C(=O)NCC2CCCOC2)c2cc[nH]c2c1=O (centres unmarked) [Example 100]
45 | 69 nM | CN(C)C1CCN(C(=O)c2cn(C)c(=O)c3[nH]ccc23)CC1 [Example 40, 4-[4-(dimethylamino)piperidine-1-carbonyl]-6-methyl-1H-pyrrolo[2,3-c]pyridin-7-one]
46 | 850 nM | Cn1cc(C(=O)NCC2CCN(C(=O)OC(C)(C)C)CC2)c2cc[nH]c2c1=O [Example 133]
47 | 720 nM | Cn1cc(C(=O)NC2CCN(C3CCCC3)CC2)c2cc[nH]c2c1=O [Example 43, N-(1-cyclopentyl-4-piperidyl)-6-methyl-7-oxo-1H-pyrrolo[2,3-c]pyridine-4-carboxamide]

Source: US10258603B2 (priority 2014, dated 2019)
